The source of these data is patent publication US20040116513A1, “Method to alter the isomeric profile of trans fatty acid in ruminant meat and milk and to increase the concentration of $I(cis)-11 conjugated linoleic acid” (priority 2000, published 2004).

Data set [1] has as its system multiparous Holstein cows. As to the kind of experiment: Animal study of dietary addition of vitamin E to an oilseed diet: milk production and milk fatty acid profile. The class given is in vivo, cow. The note with it: result in words. The procedure:
The effect of Vitamin E addition in the diet on milk fat depression as well as on the biohydrogenation shift from trans-11 to trans-10 fatty acids classically observed upon feeding of high doses of unsaturated fatty acids, was tested in vivo with six multiparous Holstein cows that yielded more than 25 kg milk/d.
A Latin square experimental design consisting of three groups of two cows, three periods of four weeks and three diets (control, oilseed and oilseed+tocopheryl-acetate) was followed. For all groups, the mixed basal diet consisted, in dry matter terms, of 30% grass silage, 46% corn silage, 13% dried sugar beet pulp, 10% soybean meal and 1% mineral & vitamin mixture. The oilseed concentrate consisted of 50% barley, 25% rapeseed and 25% linseed, whereas its control counterpart was made of 50% barley, 25% rapeseed meal and 25% linseed meal.
The amounts of oilseeds concentrate offered were calculated to provide approximately 550 g/d of supplemental lipids. In addition, cows fed oilseed diet plus Vitamin E received 9600 IU of the vitamin per day, together with the oilseed concentrate.
Milk weights were automatically recorded daily at each milking. Milk samples were taken during the last week of each period and analysed for crude protein, fat and fatty acid profile. Quantification of the trans-C18:1 and CLA isomers was performed by gas chromatography as described in Griinari et al. (1998).

For the next data set, the system named is lactating dairy cow. As to the kind of experiment: Vitamin E tolerated dose extrapolated to lactating dairy cow. Type of data set: in vivo. Conditions: 500 kg lactating dairy cow, extrapolated from chicks. From the text:
Vitamin E has a toxic effect only at very high dosages. In growing chicks, daily intake of 1000 IU/kg of body weight is without negative effects. Corresponding dietary dose in a 500 kg lactating dairy cow would be 500 000 IU/d which far exceeds the effective dose range in this invention as described before.

A further data set has as its system growing chicks. The note with it: cited from earlier work.

As to `CC(=O)Oc1c(C)c(C)c2c(c1C)CCC(C)(CCC[C@H](C)CCC[C@H](C)CCCC(C)C)O2` (mixture of isomers) [vitamin E, all-rac-α-tocopheryl acetate], in data set [1], the “CLA content (cis-9, trans-11 C18:2) of milk fat” value was “increased CLA content dramatically”; the “level of trans-10 C18:1 in milk fat” value is listed as “decreased to control levels”; the “level of trans-11 C18:1 in milk fat” value is reported as “increased significantly”; the “levels of C4:0 to C16:0 saturated fatty acids in milk” value was “no major impact”. For the same compound, in data set [1], the “levels of stearic acid (C18:0) in milk” value is given as “no major impact”, the milk fat yield result was “complete recovery”, the “shift in the ruminal biohydrogenation process (trans-11 to trans-10)” value is “completely abolished” and the “total monounsaturated C18 (C18:1) fatty acids in milk” value is listed as “no major impact”. For the same compound, the “corresponding dietary dose without negative effects” value in the data set on lactating dairy cow is given as 500 000 IU/d. Also, in the data set on growing chicks, the “daily intake without negative effects” value is given as 1000 IU/kg of body weight.
